Test results from patent US8772500B2, “TRPV3 modulators” (AbbVie Inc., priority 2011, dated 2014).

Tests used:
[1] = In vitro rat microsomal stability assay; type: in vitro ADME, rat (Sprague-Dawley); conditions: Sprague-Dawley, rat, 0.5 h, 0.5 μM, pH 7.4
Protocol: (§1) Test compounds were evaluated for metabolic stability in an in vitro rat microsomal stability assay using rat (Sprague-Dawley, from BD Biosciences) liver microsomes and/or an in vitro human microsomal stability assay using human (Xenotech) liver microsomes. […] Incubations were carried out at 37° C. with a final incubation volume of 135 μL. […] A 1.5 μL aliquot of reduced nicotine adenine disphosphonucleotide (NADPH) (Chem-Impex Int'L Inc., Lot 12532024) was also added to the time-zero plates.

[2] = In vitro human microsomal stability assay; type: in vitro ADME; conditions: human, 0.5 h, 0.5 μM, pH 7.4
Protocol: as §1

RAT MICROSOMAL STABILITY (% REMAINING AFTER 30 MINUTES) [1] [%] | HUMAN MICROSOMAL STABILITY (% REMAINING AFTER 30 MINUTES) [2] [%] | SMILES
55 | 44 | O=C1CC(c2cccc(OC(F)(F)F)c2)([C@H](O)c2ccccn2)C1 [Example 256, 3-[(S)-hydroxy(pyridin-2-yl)methyl]-3-[3-(trifluoromethoxy)phenyl]-cyclobutanone]
57 | 42 | O=C1CC(c2cccc(OC(F)(F)F)c2)([C@@H](O)c2ccccn2)C1 [Example 257, 3-[(R)-hydroxy(pyridin-2-yl)methyl]-3-[3-(trifluoromethoxy)phenyl]-cyclobutanone]
82 | 66 | O=C1CC(c2ccc(F)c(Cl)c2)([C@H](O)c2ccccn2)C1 [Example 268, 3-(3-chloro-4-fluorophenyl)-3-[(S)-hydroxy(pyridin-2-yl)methyl]-cyclobutanone]
16 | >85 | OC(c1ccccn1)C1(C2CCOC2)CCC1 (stereo not shown) [Example 284, pyridin-2-yl[1-(tetrahydrofuran-3-yl)cyclobutyl]methanol]
<0.01 | 15 | COc1ccc(C(O)C2(c3ccc(Cl)c(Cl)c3)CCC2)nc1 (stereo not shown) [Example 287, [1-(3,4-dichlorophenyl)cyclobutyl](5-methoxypyridin-2-yl)methanol]
<0.01 | 4.2 | COc1ccnc(C(O)C2(c3ccc(Cl)c(Cl)c3)CCC2)c1 (stereo not shown) [Example 289, [1-(3,4-dichlorophenyl)cyclobutyl](4-methoxypyridin-2-yl)methanol]
69 | 78 | O=C1CC(c2cc(C(F)(F)F)ccn2)(C(O)c2ccccn2)C1 (stereo not shown) [Example 293, 3-[hydroxy(pyridin-2-yl)methyl]-3-[4-(trifluoromethyl)pyridin-2-yl]cyclobutanone]
>85 | >85 | OC1CC(c2cc(C(F)(F)F)ccn2)([C@H](O)c2ccccn2)C1 (stereo partly drawn) [Example 294, 3-[(S)-hydroxy(pyridin-2-yl)methyl]-3-[4-(trifluoromethyl)pyridin-2-yl]cyclobutanol]
8.2 | 70 | O=C1CC(c2cncc(C(F)(F)F)c2)(C(O)c2ccccn2)C1 (stereo not shown) [Example 295, 3-[hydroxy(pyridin-2-yl)methyl]-3-[5-(trifluoromethyl)pyridin-3-yl]cyclobutanone]
12 | 67 | O=C1CC(c2cncc(C(F)(F)F)c2)([C@H](O)c2ccccn2)C1 [Example 296, 3-[(S)-hydroxy(pyridin-2-yl)methyl]-3-[5-(trifluoromethyl)pyridin-3-yl]cyclobutanone]
2.0 | >85 | OC(c1ccccn1)C1(c2ccnc(C(F)(F)F)c2)CC2(C1)OCCO2 (stereo not shown) [Example 297, pyridin-2-yl{2-[2-(trifluoromethyl)pyridin-4-yl]-5,8-dioxaspiro[3.4]oct-2-yl}methanol]
59 | 80 | O=C1CC(c2ccnc(C(F)(F)F)c2)(C(O)c2ccccn2)C1 (stereo not shown) [Example 298, 3-[hydroxy(pyridin-2-yl)methyl]-3-[2-(trifluoromethyl)pyridin-4-yl]cyclobutanone]
>85 | >85 | O=C1CC(c2ccnc(C(F)(F)F)c2)([C@H](O)c2ccccn2)C1 [Example 299, 3-[(S)-hydroxy(pyridin-2-yl)methyl]-3-[2-(trifluoromethyl)pyridin-4-yl]cyclobutanone]
>85 | >85 | CC1(O)CC(c2ccc(OC(F)(F)F)cc2)(C(O)c2ncccn2)C1 [Example 310, (trans)-3-((S)-hydroxy(pyrimidin-2-yl)methyl)-1-methyl-3-(4-(trifluoromethoxy)phenyl)cyclobutanol]
